Laboratory results reported in patent publication US20220177839A1, “COMPOSITION, CULTURE MEDIUM AND METHOD FOR INDUCING AND/OR AMPLIFYING TSCM IN VITRO” (SHANGHAI SINOBAY BIOTECHNOLOGY CO., LTD., priority 2019, published 2022).

Tested on: human primary CD8^+T cells (CD3^+CD8^+)
Assay: In-vitro induction and amplification of CD8+TSCM in culture media A to E (cell count, flow cytometry CD45RA, CCR7, CD95)
Format: cell-based
Settings: GSK-3β inhibitor
Procedure: 1) Pre-prepared human primary T cells (Shanghai Sinobay Bio-Tech Co., Ltd., hereinafter referred to as “Sinobay”) were selected by a magnetic bead negative selection method to obtain human primary CD8^+T cells (CD3^+CD8^+), and the human primary CD8^+T cells (CD3^+CD8^+) were placed in a 96-well U-bottom culture plate, with 5×10^4 CD8^+T cells in each well;
2) subsequently, culture media A to E and magnetic beads coupled to an anti-CD3 antibody and an anti-CD28 antibody were added into the culture plates containing the CD8^+T cells, wherein a ratio of the number of the magnetic beads to the number of the cells was 1:1; and fresh culture media A to E were supplemented at Day 4, Day 7, Day 10 and Day 13 of cell culture; and
3) the cells were counted at Day 0, Day 7 and Day 14 of cell culture respectively, flow cytometry antibodies (CD45RA, CCR7 and CD95) for detecting TSCM were incubated, and the TSCM was detected by using a flow cytometry.

With `Nc1cccc(-c2cc3c(Oc4cccc(O)c4)ncnc3[nH]2)c1` [TWS119] the “concentration range that effectively induces the formation of TSCM” value was 1 to 50 µM.
